Here are results for 7 compounds from PubChem BioAssay AID1259408 (Genetic Toxicology Data Bank (GENE-TOX), 2018).

The test system of this data set is GENE-TOX genotoxicity assays, various organisms and cells. The experiment in a line: GENE-TOX mutagenicity studies.
Where [1] appears, read: Species/Cell Type: Saccharomyces cerevisiae, Assay Type: Reverse gene mutation, Assay Code: YER+, Evaluation Type: Evaluation A (Pre-1980).
[2] abbreviates: Species/Cell Type: Salmonella typhimurium (one or more of the five standard strains: TA98, TA100, TA1535, TA1537, and TA1538), Assay Type: Histidine reverse gene mutation, Ames assay, Assay Code: SAL-, Evaluation Type: Evaluation A (Pre-1980).
Where [3] appears, read: Species/Cell Type: Bacillus subtilis (H17 vs M45), Assay Type: Rec-assay, spot test, DNA effects (bacterial DNA repair), Assay Code: REW+, Evaluation Type: Evaluation A (Pre-1980).
The mark [4] stands for this setting: Species/Cell Type: Allium cepa, Assay Type: Chromosome aberrations, Assay Code: ALC-, Evaluation Type: Evaluation A (Pre-1980).

The source made the active and inactive calls. The rule behind the calls is not given here.

Consider `O=C1NS(=O)(=O)c2ccccc21`, for which the mutagenic call is “active; positive” (Species/Cell Type: Allium cepa, Assay Type: Chromosome aberrations, Assay Code: ALC+D, Dose Response: With dose response, Evaluation Type: Evaluation A (Pre-1980)); “active; positive” (Species/Cell Type: Drosophila melanogaster, Assay Type: Sex-linked recessive lethal gene mutation, Assay Code: SRL+, Evaluation Type: Evaluation A (Pre-1980)); “no conclusion” (Species/Cell Type: Drosophila melanogaster, Sex: Male, Assay Type: Heritable translocation test, chromosome aberrations, Assay Code: DHTT, Evaluation Type: Evaluation A (Pre-1980)); “inactive; negative” (Species/Cell Type: Escherichia coli polA (W3110 vs P3478), Assay Type: Rec-assay, DNA effects (bacterial DNA repair), Assay Code: RE2-, Evaluation Type: Evaluation A (Pre-1980)); “inactive; negative” (Species/Cell Type: Escherichia coli polA (W3119 vs P3478), Assay Type: Rec-assay, DNA effects (bacterial DNA repair), Assay Code: RE1-, Evaluation Type: Evaluation A (Pre-1980)); “active; positive” (Species/Cell Type: Human lymphocytes, Assay Type: Sister-chromatid exchange (SCE) in vitro, Assay Code: SCL+D, Dose Response: With dose response, Evaluation Type: Evaluation A (Pre-1980)). Further, the mutagenic call reads like this: (Species/Cell Type: Human lymphocytes, Assay Type: Sister-chromatid exchange (SCE) in vitro, Assay Code: SCLT, Evaluation Type: Evaluation B (Post-1980)) “no conclusion”; (Species/Cell Type: Human, Assay Type: Sister-chromatid exchange (SCE) in vitro, Assay Code: SC1+D, Dose Response: With dose response, Evaluation Type: Evaluation A (Pre-1980)) “active; positive”; (Species/Cell Type: Human, Assay Type: Sister-chromatid exchange (SCE) in vitro, Assay Code: SC1T, Evaluation Type: Evaluation B (Post-1980)) “no conclusion”; (Species/Cell Type: Mammalian polychromatic erythrocytes, Assay Type: Micronucleus test, chromosome aberrations, Assay Code: MNTT, Evaluation Type: Evaluation B (Post-1980)) “no conclusion”; (Species/Cell Type: Mouse (C3H/10T1/2) cells, Assay Type: Cell transformation, Assay Code: CTH-, Evaluation Type: Evaluation A (Pre-1980)) “inactive; negative”; (Species/Cell Type: Mouse lymphoma (L5178Y) cells, Assay Type: Forward gene mutation at the thymidine kinase (TK) locus, chromosome aberrations, Assay Code: L51T, Evaluation Type: Evaluation A (Pre-1980)) “no conclusion”. Besides, the mutagenic call (Species/Cell Type: Mouse, Sex: Male, Assay Type: Sperm morphology, Assay Code: SPI-, Evaluation Type: Evaluation A (Pre-1980)) is “inactive; negative”; the mutagenic call (Species/Cell Type: Neurospora crassa, Assay Type: Aneuploidy, chromosome aberrations, Assay Code: NEN-, Evaluation Type: Evaluation A (Pre-1980)) is “inactive; negative”; the mutagenic call (Species/Cell Type: Nonhuman, Assay Type: Sister-chromatid exchange (SCE) in vitro, Assay Code: SC2+D, Dose Response: With dose response, Evaluation Type: Evaluation A (Pre-1980)) was “active; positive”; the mutagenic call (Species/Cell Type: Nonhuman, Assay Type: Sister-chromatid exchange (SCE) in vivo, Assay Code: SC3+D, Dose Response: With dose response, Evaluation Type: Evaluation B (Post-1980)) is “active; positive”; the mutagenic call (Species/Cell Type: Rodents, Sex: Male, Assay Type: Dominant lethal test, Assay Code: DLT+, Evaluation Type: Evaluation A (Pre-1980)) was “active; positive”; the mutagenic call (Species/Cell Type: Saccharomyces cerevisiae, Assay Type: Aneuploidy, chromosome aberrations, Assay Code: YEN+, Evaluation Type: Evaluation A (Pre-1980)) was “active; positive”. The mutagenic call by setting is: (Species/Cell Type: Saccharomyces cerevisiae, Assay Type: Mitotic recombination or gene conversion, Assay Code: YEC+, Evaluation Type: Evaluation A (Pre-1980)) “active; positive”; (Species/Cell Type: Saccharomyces cerevisiae, Assay Type: Mitotic recombination or gene conversion, Assay Code: YEH+/-*, Activation: With metabolic activation, Evaluation Type: Evaluation A (Pre-1980)) “inactive; positive without activation, negative with activation”; under setting [1], “active; positive”; under setting [2], “inactive; negative”; (Species/Cell Type: Salmonella typhimurium, Assay Type: Forward and reverse gene mutation, body fluid assay, Assay Code: BFU+, Evaluation Type: Evaluation A (Pre-1980)) “active; positive”; (Species/Cell Type: Salmonella typhimurium, Assay Type: Forward and reverse gene mutation, host-mediated assay, Assay Code: HMA+, Evaluation Type: Evaluation A (Pre-1980)) “active; positive”. In addition, the mutagenic call (Species/Cell Type: Syrian hamster embryo (SHE) cells, Assay Type: Cell transformation, clonal assay, Assay Code: CTC-, Evaluation Type: Evaluation A (Pre-1980)) was “inactive; negative”.

As for `CC(=O)O[C@H]1[C@H]2O[C@H]2C2=CC(=O)[C@]3(C[C@]2(C)[C@H]1C)O[C@]3(C)C=O`, the mutagenic call under setting [3] was “active; positive”; the mutagenic call (Species/Cell Type: Neurospora crassa, Assay Type: Reverse gene mutation, Assay Code: NER+, Evaluation Type: Evaluation A (Pre-1980)) is “active; positive”; the mutagenic call (Species/Cell Type: Nonhuman, Assay Type: Sister-chromatid exchange (SCE) in vitro, Assay Code: SC2T, Evaluation Type: Evaluation B (Post-1980)) was “no conclusion”; the mutagenic call (Species/Cell Type: Saccharomyces cerevisiae, Assay Type: Mitotic recombination or gene conversion, Assay Code: YEC+/-*, Activation: With metabolic activation, Evaluation Type: Evaluation A (Pre-1980)) was “inactive; positive without activation, negative with activation”; the mutagenic call (Species/Cell Type: Saccharomyces cerevisiae, Assay Type: Mitotic recombination or gene conversion, Assay Code: YEH+, Evaluation Type: Evaluation A (Pre-1980)) is “active; positive”; the mutagenic call under setting [1] was “active; positive”. Moreover, the mutagenic call (Species/Cell Type: Salmonella typhimurium (one or more of the five standard strains: TA98, TA100, TA1535, TA1537, and TA1538), Assay Type: Histidine reverse gene mutation, Ames assay, Assay Code: SALT, Evaluation Type: Evaluation A (Pre-1980)) is reported as “no conclusion”.

For the compound `O[C@@H]1c2ccccc2-c2cc3ccc4ccccc4c3cc2[C@@H]1O`, the mutagenic call is, setting by setting: (Species/Cell Type: Chinese hamster lung (V79) cells, Assay Type: Forward gene mutation at the HPRT or ouabain locus, Assay Code: V79-, Evaluation Type: Evaluation A (Pre-1980)) “inactive; negative”; (Species/Cell Type: Mouse prostate cells, Assay Type: Cell transformation, Assay Code: CTM-, Evaluation Type: Evaluation A (Pre-1980)) “inactive; negative”; (Species/Cell Type: Syrian hamster embryo (SHE) cells, Assay Type: Cell transformation, clonal assay, Assay Code: CTC+, Evaluation Type: Evaluation A (Pre-1980)) “active; positive”.

Consider `O=C1C(=O)c2ccccc2-c2ccccc21`, for which the mutagenic call under setting [4] was “inactive; negative”.

`OC(CCl)OC(O)CCl` (stereo not given): the mutagenic call (Species/Cell Type: Salmonella typhimurium (one or more of the five standard strains: TA98, TA100, TA1535, TA1537, and TA1538), Assay Type: Histidine reverse gene mutation, Ames assay, Assay Code: SAL+, Evaluation Type: Evaluation A (Pre-1980)) is “active; positive”.

On to `COc1c(Cl)ccc(Cl)c1C(=O)O`, for which the mutagenic call by setting is: under setting [3], “active; positive”; (Species/Cell Type: Drosophila melanogaster, Assay Type: Sex-linked recessive lethal gene mutation, Assay Code: SRLT, Evaluation Type: Evaluation A (Pre-1980)) “no conclusion”; (Species/Cell Type: Escherichia coli polA (W3119 vs P3478), Assay Type: Rec-assay, DNA effects (bacterial DNA repair), Assay Code: RE1+, Evaluation Type: Evaluation A (Pre-1980)) “active; positive”; (Species/Cell Type: Hordeum vulgare (barley), Assay Type: Chromosome aberrations, Assay Code: HOC+, Evaluation Type: Evaluation A (Pre-1980)) “active; positive”; (Species/Cell Type: Human diploid fibroblasts, Assay Type: Unscheduled DNA synthesis (UDS) in vitro, DNA effects, Assay Code: UDH-, Evaluation Type: Evaluation A (Pre-1980)) “inactive; negative”; (Species/Cell Type: Saccharomyces cerevisiae, Assay Type: Mitotic recombination or gene conversion, Assay Code: YEH-, Evaluation Type: Evaluation A (Pre-1980)) “inactive; negative”. Also, the mutagenic call under setting [2] was “inactive; negative”.

On to `Nc1ccc(O)c(N)c1`, for which the mutagenic call under setting [4] is “inactive; negative”.
